Results: the kinase profiling compilation of Christmann-Franck et al. (2016)

Columns and labels:
Assay in all cases: KINOMEscan competition binding
Conditions in all cases: compound 10.0 µM
ABL2 (human) = ABL2 (human) (UniProt P42684)
ACVR1B (human) = ACVR1B (human) (UniProt P36896)
ACVR2A (human) = ACVR2A (human) (UniProt P27037)
ALK (human) = ALK (human) (UniProt Q9UM73)
CAMK4 (human) = CAMK4 (human) (UniProt Q16566)
CDK16 (human) = CDK16 (human) (UniProt Q00536)
CDK17 (human) = CDK17 (human) (UniProt Q00537)
CLK2 (human) = CLK2 (human) (UniProt P49760)
EPHA1 (human) = EPHA1 (human) (UniProt P21709)
EPHB1 (human) = EPHB1 (human) (UniProt P54762)
EPHB4 (human) = EPHB4 (human) (UniProt P54760)
ERBB2 (human) = ERBB2 (human) (UniProt P04626)
LATS1 (human) = LATS1 (human) (UniProt O95835)
MAP2K6 (human) = MAP2K6 (human) (UniProt P52564)
MAP3K12 (human) = MAP3K12 (human) (UniProt Q12852)
MARK2 (human) = MARK2 (human) (UniProt Q7KZI7)
MINK1 (human) = MINK1 (human) (UniProt Q8N4C8)
MST4 (human) = MST4 (human) (UniProt Q9P289)
NEK5 (human) = NEK5 (human) (UniProt Q6P3R8)
NEK9 (human) = NEK9 (human) (UniProt Q8TD19)
PKMYT1 (human) = PKMYT1 (human) (UniProt Q99640)
PRKCD (human) = PRKCD (human) (UniProt Q05655)
RIPK4 (human) = RIPK4 (human) (UniProt P57078)
RPS6KA1 KD1 (human) = RPS6KA1 KD1 (human) (UniProt Q15418)
SLK (human) = SLK (human) (UniProt Q9H2G2)
TEK (human) = TEK (human) (UniProt Q02763)
TNK1 (human) = TNK1 (human) (UniProt Q13470)
[1] = molecular target: TYK2 JH1 catalytic (human) (UniProt P29597)
TYRO3 (human) = TYRO3 (human) (UniProt Q06418)
YES1 (human) = YES1 (human) (UniProt P07947)
[2] = system: EGFR (human), P00533 [T790M/L858R]
MAK (human) = MAK (human) (UniProt P20794)
MAP3K2 (human) = MAP3K2 (human) (UniProt Q9Y2U5)
NIM1 (human) = NIM1 (human) (UniProt Q8IY84)
PRPF4B (human) = PRPF4B (human) (UniProt Q13523)

Sequence of TYRO3 (human) (Q06418 whole entry, looked up): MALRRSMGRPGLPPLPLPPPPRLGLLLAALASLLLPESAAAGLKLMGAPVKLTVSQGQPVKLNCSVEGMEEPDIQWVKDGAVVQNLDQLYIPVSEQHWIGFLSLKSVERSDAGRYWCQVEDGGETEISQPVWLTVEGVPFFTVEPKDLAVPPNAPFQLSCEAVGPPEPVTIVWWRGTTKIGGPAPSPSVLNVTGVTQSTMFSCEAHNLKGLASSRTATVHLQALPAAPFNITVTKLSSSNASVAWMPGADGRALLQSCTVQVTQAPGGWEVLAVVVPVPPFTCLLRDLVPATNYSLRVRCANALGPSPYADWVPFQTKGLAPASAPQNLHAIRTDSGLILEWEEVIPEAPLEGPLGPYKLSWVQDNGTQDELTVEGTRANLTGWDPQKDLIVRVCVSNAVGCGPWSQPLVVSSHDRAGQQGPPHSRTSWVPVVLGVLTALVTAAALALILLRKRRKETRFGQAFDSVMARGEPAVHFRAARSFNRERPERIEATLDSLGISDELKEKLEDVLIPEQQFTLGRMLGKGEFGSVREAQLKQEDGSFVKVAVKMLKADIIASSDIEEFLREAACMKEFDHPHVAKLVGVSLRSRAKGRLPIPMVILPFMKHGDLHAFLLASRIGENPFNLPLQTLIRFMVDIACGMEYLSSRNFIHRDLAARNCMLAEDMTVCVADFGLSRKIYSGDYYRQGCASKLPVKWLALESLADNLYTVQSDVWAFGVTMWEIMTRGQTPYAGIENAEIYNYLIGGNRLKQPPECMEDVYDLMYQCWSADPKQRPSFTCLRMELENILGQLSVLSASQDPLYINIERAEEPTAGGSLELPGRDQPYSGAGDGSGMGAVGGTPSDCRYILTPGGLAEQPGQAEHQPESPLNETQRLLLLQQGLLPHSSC
Sequence of MINK1 (human) (Q8N4C8 whole entry, looked up): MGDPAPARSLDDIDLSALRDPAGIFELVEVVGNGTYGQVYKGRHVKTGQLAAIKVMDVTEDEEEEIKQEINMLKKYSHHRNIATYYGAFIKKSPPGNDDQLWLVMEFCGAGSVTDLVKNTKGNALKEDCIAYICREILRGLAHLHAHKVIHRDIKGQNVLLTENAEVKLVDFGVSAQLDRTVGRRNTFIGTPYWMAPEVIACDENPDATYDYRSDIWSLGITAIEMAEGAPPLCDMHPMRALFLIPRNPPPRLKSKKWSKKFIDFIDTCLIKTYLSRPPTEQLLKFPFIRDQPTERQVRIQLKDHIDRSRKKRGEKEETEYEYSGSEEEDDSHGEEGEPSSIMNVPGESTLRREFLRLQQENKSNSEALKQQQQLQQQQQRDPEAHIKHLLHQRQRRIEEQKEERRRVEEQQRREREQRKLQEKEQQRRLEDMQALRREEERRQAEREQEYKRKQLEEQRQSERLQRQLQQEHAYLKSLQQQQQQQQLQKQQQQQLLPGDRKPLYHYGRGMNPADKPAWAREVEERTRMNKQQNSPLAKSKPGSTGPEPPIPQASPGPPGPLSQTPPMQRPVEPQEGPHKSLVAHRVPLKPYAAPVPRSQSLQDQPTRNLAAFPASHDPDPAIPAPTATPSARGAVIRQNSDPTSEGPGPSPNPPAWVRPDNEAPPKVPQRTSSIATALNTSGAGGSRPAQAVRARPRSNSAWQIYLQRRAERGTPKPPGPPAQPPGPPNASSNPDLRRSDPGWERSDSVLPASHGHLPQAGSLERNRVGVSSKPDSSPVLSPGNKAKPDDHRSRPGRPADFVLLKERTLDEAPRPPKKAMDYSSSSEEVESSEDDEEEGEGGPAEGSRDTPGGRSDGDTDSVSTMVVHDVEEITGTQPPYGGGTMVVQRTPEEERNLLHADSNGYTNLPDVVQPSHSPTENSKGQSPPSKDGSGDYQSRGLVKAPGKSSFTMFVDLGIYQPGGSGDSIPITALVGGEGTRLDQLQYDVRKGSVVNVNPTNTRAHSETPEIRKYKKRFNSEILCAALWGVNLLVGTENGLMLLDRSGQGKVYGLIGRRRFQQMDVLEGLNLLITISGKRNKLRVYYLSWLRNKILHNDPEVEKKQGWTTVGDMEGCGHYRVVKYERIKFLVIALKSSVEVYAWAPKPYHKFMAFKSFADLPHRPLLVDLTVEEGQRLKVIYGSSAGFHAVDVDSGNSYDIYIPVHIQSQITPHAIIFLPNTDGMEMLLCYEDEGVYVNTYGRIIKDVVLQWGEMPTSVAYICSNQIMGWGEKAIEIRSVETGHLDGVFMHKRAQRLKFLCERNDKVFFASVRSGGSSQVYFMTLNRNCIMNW
Sequence of TNK1 (human) (Q13470 whole entry, looked up): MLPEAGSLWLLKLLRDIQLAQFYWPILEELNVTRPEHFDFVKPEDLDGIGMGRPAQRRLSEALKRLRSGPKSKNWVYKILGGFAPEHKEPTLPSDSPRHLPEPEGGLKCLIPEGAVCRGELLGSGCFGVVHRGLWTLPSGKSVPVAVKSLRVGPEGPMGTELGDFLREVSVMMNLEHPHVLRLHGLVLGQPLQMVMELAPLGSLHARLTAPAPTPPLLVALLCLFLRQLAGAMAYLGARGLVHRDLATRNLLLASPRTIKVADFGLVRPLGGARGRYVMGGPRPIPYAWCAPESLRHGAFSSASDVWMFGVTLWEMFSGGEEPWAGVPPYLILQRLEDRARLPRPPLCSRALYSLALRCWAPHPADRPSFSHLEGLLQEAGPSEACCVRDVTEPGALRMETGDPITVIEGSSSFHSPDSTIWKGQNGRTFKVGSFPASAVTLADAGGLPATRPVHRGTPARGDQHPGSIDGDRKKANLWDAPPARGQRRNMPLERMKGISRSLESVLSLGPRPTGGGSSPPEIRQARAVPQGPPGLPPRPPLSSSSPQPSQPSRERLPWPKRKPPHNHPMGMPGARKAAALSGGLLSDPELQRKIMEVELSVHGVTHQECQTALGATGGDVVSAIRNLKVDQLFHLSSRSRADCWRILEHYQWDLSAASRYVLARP
Sequence of EPHB4 (human) (P54760 whole entry, looked up): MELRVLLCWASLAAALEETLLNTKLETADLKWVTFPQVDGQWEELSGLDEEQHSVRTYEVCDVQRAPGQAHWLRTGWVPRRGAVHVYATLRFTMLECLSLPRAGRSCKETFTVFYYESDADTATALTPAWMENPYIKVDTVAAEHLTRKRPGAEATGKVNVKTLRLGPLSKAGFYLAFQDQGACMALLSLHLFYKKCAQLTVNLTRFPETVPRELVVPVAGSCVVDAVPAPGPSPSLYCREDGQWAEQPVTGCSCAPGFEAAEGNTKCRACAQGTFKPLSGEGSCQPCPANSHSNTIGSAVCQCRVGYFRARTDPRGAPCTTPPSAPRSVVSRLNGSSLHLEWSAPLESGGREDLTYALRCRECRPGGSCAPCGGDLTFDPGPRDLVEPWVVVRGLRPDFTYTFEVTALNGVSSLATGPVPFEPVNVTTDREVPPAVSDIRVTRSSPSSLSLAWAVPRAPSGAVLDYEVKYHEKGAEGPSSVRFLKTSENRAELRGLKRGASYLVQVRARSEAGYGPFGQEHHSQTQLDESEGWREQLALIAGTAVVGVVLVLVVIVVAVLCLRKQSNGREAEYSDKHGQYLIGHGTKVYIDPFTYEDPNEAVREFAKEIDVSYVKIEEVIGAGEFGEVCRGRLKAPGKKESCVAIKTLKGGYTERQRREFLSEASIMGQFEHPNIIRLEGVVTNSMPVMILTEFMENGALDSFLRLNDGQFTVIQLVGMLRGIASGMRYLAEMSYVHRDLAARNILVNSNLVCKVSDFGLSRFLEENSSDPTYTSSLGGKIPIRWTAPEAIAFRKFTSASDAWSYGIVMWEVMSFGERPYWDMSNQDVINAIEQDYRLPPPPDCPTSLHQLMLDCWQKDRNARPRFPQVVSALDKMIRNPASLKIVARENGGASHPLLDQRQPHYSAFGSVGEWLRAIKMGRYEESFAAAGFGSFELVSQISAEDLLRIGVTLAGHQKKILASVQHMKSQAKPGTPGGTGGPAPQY
Sequence of MAP2K6 (human) (P52564 whole entry, looked up): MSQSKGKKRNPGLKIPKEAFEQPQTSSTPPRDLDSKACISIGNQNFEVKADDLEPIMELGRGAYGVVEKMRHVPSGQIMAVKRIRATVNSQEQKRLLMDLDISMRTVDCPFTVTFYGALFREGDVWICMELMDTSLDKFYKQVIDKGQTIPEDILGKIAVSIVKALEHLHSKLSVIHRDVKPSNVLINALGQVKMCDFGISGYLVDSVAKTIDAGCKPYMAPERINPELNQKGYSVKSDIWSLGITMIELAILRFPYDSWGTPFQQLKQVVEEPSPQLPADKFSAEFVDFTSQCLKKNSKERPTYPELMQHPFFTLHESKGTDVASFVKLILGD
Sequence of RPS6KA1 KD1 (human) (Q15418 whole entry, looked up): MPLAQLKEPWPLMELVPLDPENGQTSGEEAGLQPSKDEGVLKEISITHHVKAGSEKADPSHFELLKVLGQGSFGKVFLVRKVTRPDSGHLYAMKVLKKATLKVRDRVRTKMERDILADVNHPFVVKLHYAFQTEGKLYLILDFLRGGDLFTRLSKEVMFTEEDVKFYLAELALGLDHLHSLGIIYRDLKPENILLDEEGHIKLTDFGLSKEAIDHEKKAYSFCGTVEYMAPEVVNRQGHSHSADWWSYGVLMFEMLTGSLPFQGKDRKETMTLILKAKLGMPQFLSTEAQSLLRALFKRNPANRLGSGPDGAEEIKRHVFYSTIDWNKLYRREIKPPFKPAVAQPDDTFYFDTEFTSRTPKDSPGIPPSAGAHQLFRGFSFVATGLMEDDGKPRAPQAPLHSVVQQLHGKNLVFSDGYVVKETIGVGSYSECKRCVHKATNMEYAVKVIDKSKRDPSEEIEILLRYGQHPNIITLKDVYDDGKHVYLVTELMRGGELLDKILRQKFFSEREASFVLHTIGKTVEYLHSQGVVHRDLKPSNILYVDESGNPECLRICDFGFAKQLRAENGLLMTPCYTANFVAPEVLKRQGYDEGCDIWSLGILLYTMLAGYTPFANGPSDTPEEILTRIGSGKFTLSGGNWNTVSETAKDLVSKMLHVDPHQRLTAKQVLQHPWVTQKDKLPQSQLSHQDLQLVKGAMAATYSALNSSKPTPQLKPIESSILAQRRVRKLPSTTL

kinase still bound, per cent of control (ABL2 (human))	kinase still bound, per cent of control (ACVR1B (human))	kinase still bound, per cent of control (ACVR2A (human))	kinase still bound, per cent of control (ALK (human))	kinase still bound, per cent of control (CAMK4 (human))	kinase still bound, per cent of control (CDK17 (human))	kinase still bound, per cent of control (EPHA1 (human))	kinase still bound, per cent of control (EPHB1 (human))	kinase still bound, per cent of control (EPHB4 (human))	kinase still bound, per cent of control (ERBB2 (human))	kinase still bound, per cent of control (LATS1 (human))	kinase still bound, per cent of control (MAP2K6 (human))	kinase still bound, per cent of control (MAP3K12 (human))	kinase still bound, per cent of control (MARK2 (human))	kinase still bound, per cent of control (MST4 (human))	kinase still bound, per cent of control (NEK5 (human))	kinase still bound, per cent of control (PKMYT1 (human))	kinase still bound, per cent of control (PRKCD (human))	kinase still bound, per cent of control (RPS6KA1 KD1 (human))	SMILES	kinase still bound, per cent of control (NEK9 (human))	further results
9.4%	100%	100%	1.8%	100%	100%	100%	100%	100%	100%	100%	29%	0.4%	33%	19%	100%	100%	15%	0.8%	CNC(=O)c1ccc(Nc2cc(Nc3ccccc3S(=O)(=O)C(C)C)c3cc[nH]c3n2)nc1	100%	kinase still bound, per cent of control (CDK16 (human)): 22%; kinase still bound, per cent of control (CLK2 (human)): 4.7%; kinase still bound, per cent of control (MINK1 (human)): 100%; kinase still bound, per cent of control (RIPK4 (human)): 100%; kinase still bound, per cent of control (SLK (human)): 0%; kinase still bound, per cent of control (TEK (human)): 1.8%; kinase still bound, per cent of control (TNK1 (human)): 4%; kinase still bound, per cent of control [1]: 0.25%; kinase still bound, per cent of control (TYRO3 (human)): 29%; kinase still bound, per cent of control (YES1 (human)): 1.6%
100%	100%	100%	100%	100%	100%	100%	100%	100%	100%	100%	100%	100%	100%	100%	100%	100%	100%	100%	CS(=O)(=O)N1CCN(Cc2cc3nc(-c4cccc5[nH]ncc45)nc(N4CCOCC4)c3s2)CC1	100%	kinase still bound, per cent of control [2]: 100%; kinase still bound, per cent of control (MAK (human)): 100%; kinase still bound, per cent of control (MAP3K2 (human)): 100%; kinase still bound, per cent of control (MINK1 (human)): 100%; kinase still bound, per cent of control (NIM1 (human)): 100%; kinase still bound, per cent of control (PRPF4B (human)): 100%; kinase still bound, per cent of control (RIPK4 (human)): 100%; kinase still bound, per cent of control (SLK (human)): 100%; kinase still bound, per cent of control (TEK (human)): 100%; kinase still bound, per cent of control (TNK1 (human)): 100%; kinase still bound, per cent of control [1]: 100%; kinase still bound, per cent of control (TYRO3 (human)): 100%; kinase still bound, per cent of control (YES1 (human)): 100%
100%	100%	100%	100%	100%	100%	100%	100%	100%	100%	100%	100%	100%	100%	100%	100%	100%	100%	100%	CCN(CC)CCCCNc1ncc2cc(-c3cc(OC)cc(OC)c3)c(NC(=O)NC(C)(C)C)nc2n1	100%	kinase still bound, per cent of control (CDK16 (human)): 100%; kinase still bound, per cent of control (CLK2 (human)): 100%; kinase still bound, per cent of control (SLK (human)): 100%; kinase still bound, per cent of control (TEK (human)): 100%; kinase still bound, per cent of control (TNK1 (human)): 100%; kinase still bound, per cent of control [1]: 100%; kinase still bound, per cent of control (TYRO3 (human)): 100%; kinase still bound, per cent of control (YES1 (human)): 100%
9.1%	100%	100%	100%	100%	100%	100%	100%	100%	16%	100%	100%	100%	100%	100%	100%	100%	100%	100%	C=CC(=O)Nc1ccc(CN(C(=O)Nc2c(Cl)c(OC)cc(OC)c2Cl)c2cc(Nc3ccc(N4CCN(C)CC4)cc3)ncn2)cc1	100%	kinase still bound, per cent of control (CDK16 (human)): 100%; kinase still bound, per cent of control (CLK2 (human)): 100%; kinase still bound, per cent of control (MINK1 (human)): 100%; kinase still bound, per cent of control (RIPK4 (human)): 100%; kinase still bound, per cent of control (SLK (human)): 9.8%; kinase still bound, per cent of control (TEK (human)): 0.95%; kinase still bound, per cent of control (TNK1 (human)): 28%; kinase still bound, per cent of control [1]: 12%; kinase still bound, per cent of control (TYRO3 (human)): 100%; kinase still bound, per cent of control (YES1 (human)): 5.2%

SMILES	kinase still bound, per cent of control (ABL2 (human))	kinase still bound, per cent of control (ACVR1B (human))	kinase still bound, per cent of control (ACVR2A (human))	kinase still bound, per cent of control (ALK (human))	kinase still bound, per cent of control (CAMK4 (human))	kinase still bound, per cent of control (CDK17 (human))	kinase still bound, per cent of control (EPHA1 (human))	kinase still bound, per cent of control (EPHB1 (human))	kinase still bound, per cent of control (EPHB4 (human))	kinase still bound, per cent of control (ERBB2 (human))	kinase still bound, per cent of control (LATS1 (human))	kinase still bound, per cent of control (MAP2K6 (human))	kinase still bound, per cent of control (MAP3K12 (human))	kinase still bound, per cent of control (MARK2 (human))	kinase still bound, per cent of control (MST4 (human))	kinase still bound, per cent of control (NEK5 (human))	kinase still bound, per cent of control (PKMYT1 (human))	kinase still bound, per cent of control (PRKCD (human))	kinase still bound, per cent of control (RPS6KA1 KD1 (human))	kinase still bound, per cent of control (NEK9 (human))	further results
Cc1n[nH]c2ccc(-c3cncc(OC[C@@H](N)Cc4c[nH]c5ccccc45)c3)cc12	100%	100%	100%	100%	12%	25%	100%	100%	100%	100%	3.8%	100%	100%	13%	30%	100%	100%	0.85%	100%	100%	kinase still bound, per cent of control (CDK16 (human)): 16%; kinase still bound, per cent of control (CLK2 (human)): 0.05%; kinase still bound, per cent of control (MINK1 (human)): 6.2%; kinase still bound, per cent of control (RIPK4 (human)): 100%; kinase still bound, per cent of control (SLK (human)): 100%; kinase still bound, per cent of control (TEK (human)): 100%; kinase still bound, per cent of control (TNK1 (human)): 100%; kinase still bound, per cent of control [1]: 100%; kinase still bound, per cent of control (TYRO3 (human)): 100%; kinase still bound, per cent of control (YES1 (human)): 100%
